Laboratory results reported in PMC11367503, “Exploring galectin interactions with human milk oligosaccharides and blood group antigens identifies BGA6 as a functional galectin-4 ligand” (The Journal of Biological Chemistry, 2024).
Where “and” joins values, the source holds several entries; their conditions need not be identical. Equal entries are not always repeated.

Experiments:
Format in all cases: binding
[1] = biological target: T1, human Gal-1 (Homo sapiens, UniProt P09382); assay: Competitive solid-phase assay (SPA), immobilized asialofetuin, Gal-1; conditions: mean ± S.D., three independent experiments
T1 construct: made in house; host or cells: Escherichia coli BL21 (DE3)
T1 sequence (P09382 whole entry): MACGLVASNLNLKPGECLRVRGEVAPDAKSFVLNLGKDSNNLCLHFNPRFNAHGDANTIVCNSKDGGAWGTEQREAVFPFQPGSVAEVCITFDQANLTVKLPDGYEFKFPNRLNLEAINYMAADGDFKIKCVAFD
Description: (§1) The assay was adapted from Rapoport et al. (2010) ([88]). Briefly, 96-well plates (flat-bottom) were coated with 10 μg/ml asialofetuin (ASF, Sigma-Aldrich) in sodium carbonate buffer (pH 9.6) and incubated overnight at 4 °C. Then, wells were washed three times with 100 μl/well PBS-Tween 0.05% (w/v) and blocked with 100 μl/well PBS-bovine serum albumin (BSA) 2% (1 h, room temperature (RT)) in a humid chamber. Meanwhile, equal volumes of human recombinant Gal-1, -3, -4, -7, and -12 (20–40 μg/ml) in PBS-BSA 0.3% buffer were preincubated with the corresponding inhibitors in serial dilutions (2 h, 37 °C). After washing, galectins were detected using the corresponding antigalectin primary detection antibodies in PBS-BSA 0.3% w/v (1 h at RT). For Gal-1, wells were incubated with an in-house purified 100 ng/ml biotinylated rabbit anti–human Gal-1 polyclonal immunoglobulin G. For Gal-3, -4, and -7, a 1:500 dilution of the corresponding biotinylated anti-human galectin antibodies was used (BAF1154, BAF1227, and MAB13391, respectively, R&D Systems). For Gal-12, a rabbit anti-human Gal-12 polyclonal antibody (Santa Cruz Biotechnology, 1:700) was used. For Gal-1, -3, -4, and -7, plates were rinsed three times before adding 0.33 μg/ml horseradish peroxidase (HRP)-labeled streptavidin (Sigma-Aldrich) for 30 min. For Gal-12, an anti-rabbit secondary antibody conjugate coupled to HRP was incubated for 1 h at RT in PBS-BSA 0.3% w/v. After washing, 100 μl TMB solution (0.1 mg/ml tetramethylbenzidine and 0.06% H2O2 in citrate-phosphate buffer, pH 5.0) was added to plates. The reaction was stopped by adding a 2N H2SO4 solution. Absorbance was determined at 450 nm in a Multiskan MS microplate reader (Thermo Fisher Scientific).

[2] = biological target: T2, human Gal-3 (Homo sapiens, UniProt P17931); assay: Competitive solid-phase assay (SPA), immobilized asialofetuin, Gal-3; conditions: mean ± S.D., three independent experiments
T2 construct: made in house; host or cells: Escherichia coli BL21 (DE3)
T2 sequence (P17931 whole entry): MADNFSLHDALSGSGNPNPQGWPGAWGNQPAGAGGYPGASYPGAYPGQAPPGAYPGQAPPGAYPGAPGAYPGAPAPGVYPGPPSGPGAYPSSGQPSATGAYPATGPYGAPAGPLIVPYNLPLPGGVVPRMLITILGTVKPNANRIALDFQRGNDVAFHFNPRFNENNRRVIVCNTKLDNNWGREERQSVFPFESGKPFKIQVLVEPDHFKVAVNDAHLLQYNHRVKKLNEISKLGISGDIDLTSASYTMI
Description: as §1

[3] = biological target: T3, human Gal-4 (Homo sapiens, UniProt P56470); assay: Competitive solid-phase assay (SPA), immobilized asialofetuin, Gal-4; conditions: mean ± S.D., three independent experiments
T3 construct: His6-SUMO (N, cleaved yes); made in house; host or cells: Escherichia coli BL21 (DE3)
T3 sequence (P56470 1-323): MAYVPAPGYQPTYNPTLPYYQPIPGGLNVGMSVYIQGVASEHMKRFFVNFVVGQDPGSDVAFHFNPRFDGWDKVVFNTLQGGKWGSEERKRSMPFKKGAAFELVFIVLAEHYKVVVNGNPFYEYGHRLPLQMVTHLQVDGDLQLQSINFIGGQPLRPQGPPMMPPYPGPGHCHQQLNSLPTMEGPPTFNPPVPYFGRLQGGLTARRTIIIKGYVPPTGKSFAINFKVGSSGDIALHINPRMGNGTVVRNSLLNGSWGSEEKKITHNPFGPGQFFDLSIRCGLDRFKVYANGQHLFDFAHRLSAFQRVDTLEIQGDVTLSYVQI
Description: as §1

[4] = biological target: T4, human Gal-7 (Homo sapiens, UniProt P47929); assay: Competitive solid-phase assay (SPA), immobilized asialofetuin, Gal-7; conditions: for IC50: competitive SPA, immobilized asialofetuin, mean ± S.D., three independent experiments; for affinity of Gal-7 weaker than that shown by Gal-1: SPA, Gal-7 versus Gal-1
T4 construct: made in house; host or cells: Escherichia coli BL21 (DE3)
T4 sequence (P47929 whole entry): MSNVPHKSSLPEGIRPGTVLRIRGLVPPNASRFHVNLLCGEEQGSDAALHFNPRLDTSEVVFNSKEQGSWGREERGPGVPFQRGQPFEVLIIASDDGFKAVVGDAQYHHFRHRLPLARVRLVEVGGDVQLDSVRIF
Description: as §1

[5] = biological target: T5, human Gal-12 (Homo sapiens, UniProt Q96DT0); assay: Competitive solid-phase assay (SPA), immobilized asialofetuin, Gal-12; conditions: mean ± S.D., three independent experiments
T5 construct: To obtain full-length human Gal-12, we adapted our previously optimized procedure for murine Gal-12; made in house; host or cells: Escherichia coli Rosetta 2 (DE3)
T5 sequence (Q96DT0 1-336): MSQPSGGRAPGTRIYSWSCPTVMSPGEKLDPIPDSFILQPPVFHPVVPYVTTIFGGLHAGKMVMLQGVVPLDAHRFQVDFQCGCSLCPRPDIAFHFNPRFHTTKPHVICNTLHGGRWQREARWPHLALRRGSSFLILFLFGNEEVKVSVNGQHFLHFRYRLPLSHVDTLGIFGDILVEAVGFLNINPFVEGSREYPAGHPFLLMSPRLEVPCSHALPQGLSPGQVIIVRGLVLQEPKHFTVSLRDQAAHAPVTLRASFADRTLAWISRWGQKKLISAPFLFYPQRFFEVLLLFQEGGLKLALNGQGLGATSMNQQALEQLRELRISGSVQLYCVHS
Description: as §1

[6] = biological target: T4, human Gal-7; assay: Isothermal titration calorimetry (ITC), Gal-7; conditions: Gal-7, PBS, 298 K, n fixed to 1.00
Description: (§2) All ITC experiments were performed by using a NanoITC (TA Instruments) under previously optimized conditions ([89]). A typical titration involved 20 injections at 300 s intervals of 2.5 μl aliquots of a 2.5 to 10 mM ligand solution into the sample cell (volume 200 μl) containing the different galectins (30–100 μM). The solutions were prepared by dissolving the glycan ligands in degassed PBS buffer at 298 K. The titration cell was continuously stirred at 300 rev/min. The heats of dilution of the ligands in the buffer were subtracted from the titration data. […] Fitting was performed using the Nano Analyze software (TA Instruments; https://www.tainstruments.com/itcrun-dscrun-nanoanalyze-software/) to determine association constants (Ka) and the enthalpy change (ΔH). No reliable fit of the thermodynamic parameters could be obtained for binding affinities above 80 μM.

[7] = biological target: T1, human Gal-1; assay: Isothermal titration calorimetry (ITC), Gal-1; conditions: Gal-1, PBS, 298 K; for Kd: n fixed to 1.00
Description: as §2

[8] = biological target: T2, human Gal-3; assay: Isothermal titration calorimetry (ITC), Gal-3; conditions: Gal-3, PBS, 298 K; for Kd: n fixed to 1.00
Description: as §2

[9] = biological target: T5, human Gal-12; assay: Isothermal titration calorimetry (ITC), Gal-12; conditions: Gal-12, PBS, 298 K, n fixed to 1.00
Description: as §2

SMILES	IC50 [1]	IC50 [2]	IC50 [3]	IC50 [4]	IC50 [5]	Kd [6]	affinity of Gal-7 weaker than that shown by Gal-1 [4]	-TΔS [7]	ΔH [7]	Kd [7]	-TΔS [8]	ΔH [8]	Kd [8]	Kd [9]
CC1OC(OC2C(OC3C(CO)OC(O)C(O)C3OC3OC(C)C(O)C(O)C3O)OC(CO)C(O)C2O)C(O)C(O)C1O (stereo not drawn) [DFL, 2′,3-difucosyllactose]	11.9 mM	9.1 ± 0.9 mM	14.5 ± 0.7 mM	18.4 ± 0.3 mM	4.5 ± 0.6 mM									
CC(=O)NC1C(OC2C(O)C(CO)OC(OC3C(CO)OC(O)C(O)C3OC3OC(C)C(O)C(O)C3O)C2O)OC(CO)C(OC2OC(C)C(O)C(O)C2O)C1OC1OC(CO)C(O)C(O)C1O (stereo not drawn) [LAH, Lewis A antigen hexaose]		9.3 ± 0.6 mM	30.4 ± 2 mM	22.2 ± 0.8 mM	51.1 ± 5 mM									
CC(=O)NC1C(OC2C(O)C(CO)OC(OC3C(CO)OC(O)C(O)C3OC3OC(C)C(O)C(O)C3O)C2O)OC(CO)C(O)C1OC1OC(CO)C(O)C(O)C1O (stereo not drawn) [LNFP V, lacto-N-fucopentaose V]	2.6 mM and 2.61 mM	2.7 ± 0.5 mM	25.1 ± 0.5 mM	7.2 ± 0.3 mM	8.9 ± 1 mM									
CC(=O)NC1C(OC2C(O)C(CO)OC(OC3C(CO)OC(O)C(O)C3O)C2O)OC(CO)C(O)C1OC1OC(CO)C(O)C(O)C1O (stereo not drawn) [LNT, lacto-N-tetraose]	1.6 ± 0.1 mM	~1.8 mM and 1.8 mM	15.1 ± 0.2 mM	2 mM	30.1 ± 5 mM	106 ± 8 µM								
CC(=O)NC1C(OC2C(O)C(CO)OC(OC3C(CO)OC(OC4C(O)C(CO)OC(OC5C(CO)OC(OC6C(O)C(CO)OC(OC7C(CO)OC(O)C(O)C7O)C6O)C(NC(C)=O)C5O)C4O)C(NC(C)=O)C3O)C2O)OC(CO)C(OC2OC(CO)C(O)C(O)C2O)C1O (stereo not drawn) [LNnO, lacto-N-neooctaose]	0.6 ± 0.1 mM	0.5 ± 0.9 mM	21.5 mM	2.1 ± 0.8 mM	28.1 ± 5 mM		ca. 5 fold	-10.9 ± 0.0 kJ/mol	-12.7 ± 2 kJ/mol	73 ± 7 µM	-21 ± 2 kJ/mol	-4.6 ± 0.4 kJ/mol	40 ± 3 µM	
CC(=O)NC1C(OC2C(O)C(CO)OC(OC3C(CO)OC(O)C(O)C3O)C2O)OC(CO)C(OC2OC(CO)C(O)C(O)C2O)C1O (stereo not drawn) [LNnT, lacto-N-neotetraose]	0.5 ± 0.1 mM	~1.8 mM and 1.8 mM	25.2 mM	3.3 mM	29.3 ± 6 mM		ca. 5 fold	-14.7 ± 0.8 kJ/mol	-9.0 ± 0.9 kJ/mol	72 ± 8 µM			95 ± 9 µM	
CC(=O)NC1C(O)CC(OC2C(O)C(CO)OC(OC3C(O)C(CO)OC(OC4C(O)C(CO)OC(OC5C(CO)OC(O)C(O)C5O)C4O)C3NC(C)=O)C2O)(C(=O)O)OC1C(O)C(O)CO (stereo not drawn) [LSTa, sialyl-lacto-N-tetraose a]	1.8 ± 0.1 mM	7.8 ± 0.8 mM		4.3 ± 0.9 mM	9.2 ± 1 mM									
CC(=O)NC1C(O)OC(CO)C(OC2OC(CO)C(O)C(O)C2O)C1OC1OC(C)C(O)C(O)C1O (stereo not drawn) [Le^X, Lewis X trisaccharide]	8.2 ± 0.9 mM	9.5 ± 0.5 mM	26.2 ± 0.9 mM	15.1 ± 2 mM	2 ± 0.3 mM									80 ± 9 µM
CC(=O)NC1C(O)CC(OC2C(O)C(CO)OC(OC3C(CO)OC(O)C(O)C3OC3OC(C)C(O)C(O)C3O)C2O)(C(=O)O)OC1C(O)C(O)CO (stereo not drawn) [SFL, 3’-sialyl-3-fucosyllactose]	5.7 ± 0.1 mM	39 ± 0.6 mM		4.8 ± 0.9 mM	3.2 ± 0.4 mM									151 ± 11 µM
